According to patent US9428500B2, “Alpha-carbolines for the treatment of cancer” (UNIVERSITA' DEGLI STUDI DI MILANO—BICOCCA, priority 2012, dated 2016):

Experiments:
[1] = system: parental untransformed BaF3 cells; test: Tritiated thymidine uptake cell proliferation assay, parental BaF3; format: cell-based; details: Mus musculus, BaF3; 3H-thymidine uptake, 72 h, medium with IL-3
NPM/ALK+ Karpas299 cells = test: NPM/ALK+ Karpas299 tumour growth in SCID mice; format: in vivo; details: oral gavage, 150 mg/kg twice per day, subcutaneous Karpas299 tumors in SCID mice
Description: The in vivo studies were approved by the Italian Ministry of Research and by the University internal ethical committee, and were run according to guidelines to reduce animal pain. Ten million NPM/ALK+ Karpas299 cells were injected subcutaneously in the right flank of SCID mice. Ten days later, when the tumors reached the size of 100 mm3 on average, mice were randomized either to control arm, receiving vehicle only (0.5% carboxymethylcellulose and 0.1% Tween80), or to treatment arm, receiving compound R533 by oral gavage, 150 mg/kg twice per day. Tumor size was measured bi-weekly by a caliper. General toxicity was assessed by monitoring weight loss, and by visual inspection for any sign of stress or suffering, including eye closure or bulging, ruffled/dull fur, reduced mobility, drowsiness, diarrhea.

With `CN1CCN(c2ccc(-c3ccc4[nH]c5nccc(-c6ccc(Cc7ccccc7)cc6)c5c4c3)cc2)CC1` [Example 16, 4-(4-Benzylphenyl)-6-[4-(4-methylpiperazin-1-yl)-phenyl]-9H-pyrido[2,3-b]indole] the IC50 [1] was 8.7 µM and the “Tumor size (tumour growth curves)” value (NPM/ALK+ Karpas299 cells) was “remarkable effect”.
